# Test results taken from US10495796B2, “Near-infrared cut filter” (AGC INC., priority 2012, dated 2019).
# Tests used:
# [1] = Solubility of dye to organic solvent; assay type: physicochemical; conditions: 50° C., mass % of the dye to the mass of the entire solution; for Solubility to organic solvent: MIBK: methyl isobutyl ketone
# Description: Regarding the dyes (A11-1) to (A11-10) and (A11-20) to (A11-27) obtained above, solubility to organic solvent was evaluated as follows.
# Three kinds of solvents, cyclohexanone, methyl isobutyl ketone (MIBK), toluene, were used as the organic solvent in the solubility test. Note that in Table 3, % is mass % of the dye to the mass of the entire solution. Further, the temperature of each organic solvent in the solubility test was 50° C.
# [2] = Absorption characteristics: transmission spectrum of near-infrared absorbing layer of NIR filter (UV-visible spectrophotometer); assay type: physicochemical
# Description: Further, the transmittance of the near-infrared absorbing layer can be measured by using an ultraviolet visible light spectrophotometer. For example, when the near-infrared absorbing layer is provided on a glass substrate, the transmittance is calculated by subtracting the transmittance of only the glass substrate. Note that the transmittance of light of the near-infrared absorbing layer refers to, unless otherwise stated, a ratio to light incident from a direction orthogonal to a main surface of a sample, the ratio of this light traveling straight inside the sample and transmitted to an opposite side. Further, when the transmittance is measured by making light incident from a direction other than the direction orthogonal to the main surface of the sample in the measurement of transmittance of light, an angle made by a straight line indicating the direction of the incident light to a line orthogonal to the main surface is called an incident angle.
# In the condition (ii-3), the value calculated by nd(B)×(λa−λc) (hereinafter, this value may also be described as “Is value”) is a value to be an index indicating steepness of the absorption curve in the vicinity of the boundary between the visible light region and the near-infrared region with respect to a transmission spectrum of the near-infrared absorbing layer. When this value is 115 or less, the absorption curve in the vicinity of the boundary between the visible light region and the near-infrared region is steep with respect to the near-infrared absorbing layer, which can be said as preferable for the NIR filter.
# That is, with respect to the transmission spectrum of the near-infrared absorbing layer, the smaller the difference (λa−λc) between the shortest wavelength λa with transmittance of 1% in the region of 650 nm to 800 nm and the wavelength λc with transmittance of 70% on a shorter wavelength side than the λa, the steeper the absorption curve in the vicinity of the boundary between the visible light region and the near-infrared region. Here, λa−λc also depends on a wavelength width having transmittance of 1% or less (λb−λa; λb is the longest wavelength with transmittance of 1% in the wavelength region of 650 nm to 800 nm). Accordingly, in order to compare and evaluate the steepness of the absorption curve in the above region of the transmission spectrum of the near-infrared absorbing layer, λb−λa is fixed to 30 nm. That is, λb−λa of the near-infrared absorbing layer which the present filter has is not limited to 30 nm.
# Further, in the Is value, (λa−λc) is multiplied by the refractive index nd(B) of the transparent resin (B) contained in the near-infrared absorbing layer as a coefficient. This is to standardize the difference in steepness among resins.
# Regarding transmittance (%/nm) of the NIR filters 1 to 109 obtained above, transmission spectra were measured and calculated by using an ultraviolet visible light spectrophotometer (U-4100 type spectrophotometer made by Hitachi High-Technologies Corporation). Analysis results of transmission spectra of the near-infrared absorbing layers which the NIR filters have are presented in Table 4, Table 5 and Table 6 for the NIR filters 1 to 25, 26 to 51, 52 to 75, respectively, and are presented in Table 7 and Table 8 for the NIR filters 76 to 94, 95 to 109, respectively. In Table 4 to Table 8, the ratios (parts by mass) of dyes to 100 parts by mass of the transparent resin (B) and film thicknesses of the near-infrared absorbing layers are described together.
# Further, conditions of preferred transmission spectra of the near-infrared absorbing layers in the present filter and Is values obtained by the formula: nd(B)×(λa-λc) described in above (ii-3) are described in Table 4 to Table 8 together with λa in the condition (ii-1) and λb-λa in the condition (ii-2). Note that values described in Table 4 to Table 8 are values obtained by subtracting transmittance of a glass plate from transmittance of an NIR filter. […]
# [3] = transparent resin acrylic resin BR50, nd(B) 1.56, film thickness 2.3 μm
# [4] = transparent resin polycarbonate EP5000, nd(B) 1.63, film thickness 2.4 μm
# [5] = transparent resin polycarbonate SP3810, nd(B) 1.63, film thickness 1.0 μm
# [6] = transparent resin polycarbonate SP3810, nd(B) 1.63, film thickness 2.8 μm
# [7] = transparent resin polycarbonate SP1516, nd(B) 1.60, film thickness 0.9 μm
structure (smiles),measurement,setting,value
CCCCC(CC)C(=O)Nc1cc2c(cc1C1=C([O-])C(=c3cc4c(cc3NC(=O)C(CC)CCCC)=[N+](C)C(C)C4(C)C)C1=O)C(C)(C)C(C)N2C (stereo not drawn) [Example A11-2],Solubility to organic solvent: Cyclohexanone,[1],10%< mass %
same,Solubility to organic solvent: MIBK,[1],10%< mass %
same,Solubility to organic solvent: Toluene,[1],5.00% mass %
same,430 nm to 600 nm Average transmittance,[2]; [3],95%
same,Is value (nd(B)×(λa-λc)),[2]; [3],112.4
same,λa,[2]; [3],689 nm
same,λa − λc,[2]; [3],72 nm
same,λb,[2]; [3],719 nm
same,λb − λa,[2]; [3],30 nm
same,λc,[2]; [3],617 nm
same,λmax,[2]; [3],706 nm
same,430 nm to 600 nm Average transmittance,[2]; [4],96.2%
same,Is value (nd(B)×(λa-λc)),[2]; [4],112.6
same,λa,[2]; [4],694 nm
same,λa − λc,[2]; [4],69 nm
same,λb,[2]; [4],724 nm
same,λb − λa,[2]; [4],30 nm
same,λc,[2]; [4],625 nm
same,λmax,[2]; [4],711 nm
same,430 nm to 600 nm Average transmittance,[2]; [5],96.1%
same,Is value (nd(B)×(λa-λc)),[2]; [5],114.4
same,λa,[2]; [5],694 nm
same,λa − λc,[2]; [5],70 nm
same,λb,[2]; [5],724 nm
same,λb − λa,[2]; [5],30 nm
same,λc,[2]; [5],624 nm
same,λmax,[2]; [5],706 nm
same,430 nm to 600 nm Average transmittance,[2]; [6],95.5%
same,Is value (nd(B)×(λa-λc)),[2]; [6],112.8
same,λa,[2]; [6],694 nm
same,λa − λc,[2]; [6],69 nm
same,λb,[2]; [6],724 nm
same,λb − λa,[2]; [6],30 nm
same,λc,[2]; [6],625 nm
same,λmax,[2]; [6],710 nm
"CCCCCCCCCCCC(=O)Nc1cc2c(cc1C1=C([O-])C(=c3cc4c(cc3NC(=O)CCCCCCCCCCC)=[N+](C)C(C)C4(C)C)C1=O)C(C)(C)C(C)N2C (stereo not drawn) [Example A11-25, reference compound]",Solubility to organic solvent: Cyclohexanone,[1],3.00% mass %
same,Solubility to organic solvent: MIBK,[1],1.00% mass %
same,Solubility to organic solvent: Toluene,[1],10%< mass %
same,430 nm to 600 nm Average transmittance,[2]; [3],94.5%
same,Is value (nd(B)×(λa-λc)),[2]; [3],129.6
same,λa,[2]; [3],688 nm
same,λa − λc,[2]; [3],83 nm
same,λb,[2]; [3],718 nm
same,λb − λa,[2]; [3],30 nm
same,λc,[2]; [3],605 nm
same,λmax,[2]; [3],705 nm
same,430 nm to 600 nm Average transmittance,[2]; [4],95.5%
same,Is value (nd(B)×(λa-λc)),[2]; [4],120.8
same,λa,[2]; [4],693 nm
same,λa − λc,[2]; [4],69 nm
same,λb,[2]; [4],723 nm
same,λb − λa,[2]; [4],30 nm
same,λc,[2]; [4],619 nm
same,λmax,[2]; [4],710 nm
same,430 nm to 600 nm Average transmittance,[2]; [7],95.6%
same,Is value (nd(B)×(λa-λc)),[2]; [7],124.8
same,λa,[2]; [7],690 nm
same,λa − λc,[2]; [7],78 nm
same,λb,[2]; [7],720 nm
same,λb − λa,[2]; [7],30 nm
same,λc,[2]; [7],612 nm
same,λmax,[2]; [7],707 nm
same,430 nm to 600 nm Average transmittance,[2]; [5],94.6%
same,Is value (nd(B)×(λa-λc)),[2]; [5],122.6
same,λa,[2]; [5],693 nm
same,λa − λc,[2]; [5],75 nm
same,λb,[2]; [5],723 nm
same,λb − λa,[2]; [5],30 nm
same,λc,[2]; [5],618 nm
same,λmax,[2]; [5],710 nm
same,430 nm to 600 nm Average transmittance,[2]; [6],95.3%
same,Is value (nd(B)×(λa-λc)),[2]; [6],119.3
same,λa,[2]; [6],694 nm
same,λa − λc,[2]; [6],73 nm
same,λb,[2]; [6],724 nm
same,λb − λa,[2]; [6],30 nm
same,λc,[2]; [6],621 nm
same,λmax,[2]; [6],710 nm
"CCCCCCCC(=O)Nc1cc2c(cc1C1=C([O-])C(=c3cc4c(cc3NC(=O)CCCCCCC)=[N+](C)C(C)C4(C)C)C1=O)C(C)(C)C(C)N2C (stereo not drawn) [Example A11-24, reference compound]",Solubility to organic solvent: Cyclohexanone,[1],5.00% mass %
same,Solubility to organic solvent: MIBK,[1],1.00% mass %
same,Solubility to organic solvent: Toluene,[1],5.00% mass %
same,430 nm to 600 nm Average transmittance,[2]; [3],93.7%
same,Is value (nd(B)×(λa-λc)),[2]; [3],132.7
same,λa,[2]; [3],688 nm
same,λa − λc,[2]; [3],85 nm
same,λb,[2]; [3],718 nm
same,λb − λa,[2]; [3],30 nm
same,λc,[2]; [3],603 nm
same,λmax,[2]; [3],705 nm
same,430 nm to 600 nm Average transmittance,[2]; [4],95.9%
same,Is value (nd(B)×(λa-λc)),[2]; [4],120.8
same,λa,[2]; [4],694 nm
same,λa − λc,[2]; [4],69 nm
same,λb,[2]; [4],724 nm
same,λb − λa,[2]; [4],30 nm
same,λc,[2]; [4],620 nm
same,λmax,[2]; [4],710 nm
same,430 nm to 600 nm Average transmittance,[2]; [5],95.2%
same,Is value (nd(B)×(λa-λc)),[2]; [5],122.6
same,λa,[2]; [5],693 nm
same,λa − λc,[2]; [5],75 nm
same,λb,[2]; [5],723 nm
same,λb − λa,[2]; [5],30 nm
same,λc,[2]; [5],618 nm
same,λmax,[2]; [5],710 nm
same,430 nm to 600 nm Average transmittance,[2]; [6],95.4%
same,Is value (nd(B)×(λa-λc)),[2]; [6],119.3
same,λa,[2]; [6],694 nm
same,λa − λc,[2]; [6],73 nm
same,λb,[2]; [6],724 nm
same,λb − λa,[2]; [6],30 nm
same,λc,[2]; [6],621 nm
same,λmax,[2]; [6],710 nm
"CCCCCC(=O)Nc1cc2c(cc1C1=C([O-])C(=c3cc4c(cc3NC(=O)CCCCC)=[N+](C)C(C)C4(C)C)C1=O)C(C)(C)C(C)N2C (stereo not drawn) [Example A11-22, reference compound]",Solubility to organic solvent: Cyclohexanone,[1],<1.0% mass %
same,Solubility to organic solvent: MIBK,[1],<1.0% mass %
same,Solubility to organic solvent: Toluene,[1],1.00% mass %
same,430 nm to 600 nm Average transmittance,[2]; [7],95.3%
same,Is value (nd(B)×(λa-λc)),[2]; [7],126.4
same,λa,[2]; [7],691 nm
same,λa − λc,[2]; [7],79 nm
same,λb,[2]; [7],721 nm
same,λb − λa,[2]; [7],30 nm
same,λc,[2]; [7],612 nm
same,λmax,[2]; [7],707 nm
CCCC(CCC)C(=O)Nc1cc2c(cc1C1=C([O-])C(=c3cc4c(cc3NC(=O)C(CCC)CCC)=[N+](C)C(C)C4(C)C)C1=O)C(C)(C)C(C)N2C (stereo not drawn) [Example A11-1],Solubility to organic solvent: Cyclohexanone,[1],10%< mass %
same,Solubility to organic solvent: MIBK,[1],2.50% mass %
same,Solubility to organic solvent: Toluene,[1],10%< mass %
same,430 nm to 600 nm Average transmittance,[2]; [3],95.1%
same,Is value (nd(B)×(λa-λc)),[2]; [3],110.9
same,λa,[2]; [3],689 nm
same,λa − λc,[2]; [3],71 nm
same,λb,[2]; [3],719 nm
same,λb − λa,[2]; [3],30 nm
same,λc,[2]; [3],618 nm
same,λmax,[2]; [3],706 nm
same,430 nm to 600 nm Average transmittance,[2]; [4],96.5%
same,Is value (nd(B)×(λa-λc)),[2]; [4],111.0
same,λa,[2]; [4],694 nm
same,λa − λc,[2]; [4],68 nm
same,λb,[2]; [4],724 nm
same,λb − λa,[2]; [4],30 nm
same,λc,[2]; [4],626 nm
same,λmax,[2]; [4],711 nm
same,430 nm to 600 nm Average transmittance,[2]; [5],97.3%
same,Is value (nd(B)×(λa-λc)),[2]; [5],112.8
same,λa,[2]; [5],694 nm
same,λa − λc,[2]; [5],69 nm
same,λb,[2]; [5],724 nm
same,λb − λa,[2]; [5],30 nm
same,λc,[2]; [5],625 nm
same,λmax,[2]; [5],706 nm
same,430 nm to 600 nm Average transmittance,[2]; [6],96%
same,Is value (nd(B)×(λa-λc)),[2]; [6],112.8
same,λa,[2]; [6],695 nm
same,λa − λc,[2]; [6],69 nm
same,λb,[2]; [6],725 nm
same,λb − λa,[2]; [6],30 nm
same,λc,[2]; [6],626 nm
same,λmax,[2]; [6],711 nm
